Measurements as given in article PMC10763179 (Open access Macedonian journal of medical sciences, 2023).

Columns and labels:
[1] = tested on: larvae of marine crustaceans Artemia salina (Leach); assay: Brine shrimp toxicity bioassay; format: in vivo; conditions: 24 h of exposure
[2] = tested on: HL-60(TB); assay: NCI60 screen; format: cell-based; conditions: Homo sapiens, HL-60, read-out: inhibition of cell growth
[3] = tested on: K-562; assay: NCI60 screen; format: cell-based; conditions: Homo sapiens, K562, read-out: inhibition of cell growth
[4] = tested on: SR; assay: NCI60 screen; format: cell-based; conditions: Homo sapiens, read-out: inhibition of cell growth
[5] = tested on: COLO 205; assay: NCI60 screen; format: cell-based; conditions: Homo sapiens, COLO 205, read-out: inhibition of cell growth
[6] = tested on: HCT-116; assay: NCI60 screen; format: cell-based; conditions: Homo sapiens, HCT-116, read-out: inhibition of cell growth
[7] = tested on: HCT-15; assay: NCI60 screen; format: cell-based; conditions: Homo sapiens, HCT-15, read-out: inhibition of cell growth
[8] = tested on: HT29; assay: NCI60 screen; format: cell-based; conditions: Homo sapiens, HT-29, read-out: inhibition of cell growth
[9] = tested on: SW-620; assay: NCI60 screen; format: cell-based; conditions: Homo sapiens, SW-620, read-out: inhibition of cell growth
[10] = tested on: MDA-MB-435; assay: NCI60 screen; format: cell-based; conditions: Homo sapiens, MDA-MB-435, read-out: inhibition of cell growth
[11] = tested on: UACC-257; assay: NCI60 screen; format: cell-based; conditions: Homo sapiens, UACC-257, read-out: inhibition of cell growth
[12] = tested on: UACC-62; assay: NCI60 screen; format: cell-based; conditions: Homo sapiens, UACC-62, read-out: inhibition of cell growth
[13] = tested on: OVCAR-3; assay: NCI60 screen; format: cell-based; conditions: Homo sapiens, OVCAR-3, read-out: inhibition of cell growth
[14] = tested on: CAKI-1; assay: NCI60 screen; format: cell-based; conditions: Homo sapiens, CAKI-1, read-out: inhibition of cell growth
[15] = tested on: RXF 393; assay: NCI60 screen; format: cell-based; conditions: Homo sapiens, RXF 393, read-out: inhibition of cell growth
[16] = tested on: TK-10; assay: NCI60 screen; format: cell-based; conditions: Homo sapiens, TK-10, read-out: inhibition of cell growth
[17] = tested on: DU-145; assay: NCI60 screen; format: cell-based; conditions: Homo sapiens, DU-145, read-out: inhibition of cell growth
[18] = tested on: MCF7; assay: NCI60 screen; format: cell-based; conditions: Homo sapiens, MCF7, read-out: inhibition of cell growth
[19] = tested on: BT-549; assay: NCI60 screen; format: cell-based; conditions: Homo sapiens, BT-549, read-out: inhibition of cell growth
[20] = tested on: T-47D; assay: NCI60 screen; format: cell-based; conditions: Homo sapiens, T47D, read-out: inhibition of cell growth
[21] = tested on: NCI60 human tumor cell lines; assay: NCI60 screen; format: cell-based
[22] = Effect on hematopoiesis
[23] = Immunosuppressive activity

Which “LD500” value [1] does the source give for `CC1=CCC23OC2(C)CCC2C(CN(C)C)C(=O)OC2C13.Cl` (stereo not drawn) [13-dimethylamino-1,10β-epoxy-5,7α,6, 11 β(H)-guai-3,4-ene-6,12-olide hydrochloride, reference compound] here?
The value was 20.6 mg/mL.

Which inhibition at 8.3 µM [2] does the source give for `C=C1C(=O)O[C@@H]2[C@H]3C(C)=CC[C@@]34O[C@@]4(C)CC[C@@H]12` [Arglabin 6, arglabin] here?
Its inhibition at 8.3 µM is 97.4%.

What about the inhibition at 8.3 µM [3] of the same molecule?
The inhibition at 8.3 µM was 73.8%.

And the inhibition at 8.3 µM [4]?
The inhibition at 8.3 µM was 97.8%.

And the inhibition at 8.3 µM [5]?
The inhibition at 8.3 µM was 57.6%.

And the inhibition at 8.3 µM [6]?
Its inhibition at 8.3 µM is 82.6%.

What about the inhibition at 8.3 µM [7] of the same molecule?
The inhibition at 8.3 µM was 75.4%.

What about the inhibition at 8.3 µM [8] of the same molecule?
The inhibition at 8.3 µM was 59.3%.

And the inhibition at 8.3 µM [9]?
The inhibition at 8.3 µM was 70.9%.

And the inhibition at 8.3 µM [10]?
Its inhibition at 8.3 µM is 65.8%.

And the inhibition at 8.3 µM [11]?
Its inhibition at 8.3 µM is 55.9%.

And the inhibition at 8.3 µM [12]?
Its inhibition at 8.3 µM is 74.2%.

And the inhibition at 8.3 µM [13]?
Its inhibition at 8.3 µM is 69.6%.

And the inhibition at 8.3 µM [14]?
Its inhibition at 8.3 µM is 73.4%.

And the inhibition at 8.3 µM [15]?
Its inhibition at 8.3 µM is 67.3%.

And the inhibition at 8.3 µM [16]?
The inhibition at 8.3 µM was 94.3%.

What about the inhibition at 8.3 µM [17] of the same molecule?
The inhibition at 8.3 µM was 88.5%.

And the inhibition at 8.3 µM [18]?
The inhibition at 8.3 µM was 71.1%.

And the inhibition at 8.3 µM [19]?
Its inhibition at 8.3 µM is 72.1%.

What about the inhibition at 8.3 µM [20] of the same molecule?
The inhibition at 8.3 µM was 73.5%.

And the inhibition at 8.3 µM ([21]; Homo sapiens, read-out: average value of cell growth inhibition for all 60 NCI60 human tumor cell lines)?
Its inhibition at 8.3 µM is 45.9%.

What about the “Mean tumor cell growth, %” value ([21]; mean over NCI60 panel, single dose 8.3 μM) of the same molecule?
The value was 54.15%.

And the “depressant effect on hematopoiesis” value [22]?
The value was “does not have a depressant effect on hematopoiesis”.

What about the immunosuppressive activity [23] of the same molecule?
Its immunosuppressive activity is “does not exhibit immunosuppressive activity”.

For `C[S+](C)[O-]` [dimethyl sulfoxide], which “LD500” value [1] is on record?
Its value is 930.27 mg/mL.

With “hydroxyarglabin acetate [hydroxyarglabin acetate 12]” as the molecule, how does the “IC50 against the larvae of Artemia salina” value [1] read?
The value was 77.8 µg/mL.

And the “LD500” value [1]?
Its value is 77.8 mg/mL.
